Experiment [1] deals with human recombinant SIRT2 deacetylase (Homo sapiens (Human), UniProt Q8IXJ6). Kind of experiment: Sirtuin biochemical deacetylation assay, SIRT2. The following applies: for SIRT2 inhibition: dose-response. The method, then:
Modulation of sirtuin activity by compounds was assessed using the Flour de Lys fluorescent biochemical assay in a 96-well format as described (Outeiro et al., 2007). The deacetylation reaction was performed at 37° C. for an hour in the presence of human recombinant enzymes: SIRT1 (BioMol-SE-239) 1 unit/per reaction, SIRT2 (BioMol-SE-251) 5 units/per reaction, or SIRT3 (BioMol-SE-270) 5 units/per reaction, compound of interest, standard buffer, 50 μM substrate, and 500 μM NAD^+ according to the manufacturer's protocol. […]

Experiment [2] deals with mutant HTT exon 1 fragment. In words: Mutant HTT exon 1 levels in R6/2 mice (HTRF). The experiment is classed as in vivo, mouse. The following applies: 50 mg/kG daily for 3 weeks. The protocol:
In effects of brain-permeable MIND4 on clearance misfloded mutant HTT fragments have been tested in HD mouse model R6/2, expressing mutant HTT exon 1 fragment. Symptomatic HD mice (5 week old) have been treated with MIND4 at 50 mg/kG daily dose for 3 weeks. Treatment effects on levels of mutant exon 1 HTT have been measured by a highly sensitive HTRF method (FIG. 17C) as described (Mosckovitch-Lopatin, 2010; Chopra, 2012).

Another experiment deals with NRF2/KEAP1 in MEFs. Kind of experiment: NQO1 and NRF2 levels in mouse embryonic fibroblasts (MEFs), western blot. Type of experiment: cell-based. The following applies: wild-type MEFs; for Accumulation of total NRF2 protein: 5 hr exposure. The method, then:
Mouse embryonic fibroblasts (MEFs) from wild-type (WT), NRF2-knockout (NRF2-KO) or KEAP1-knockout (KEAP1-KO) mice, were cultured in plastic dishes (Invitrogen) coated for 30 min with 0.1% (w/v) gelatin before use. The cell culture medium was Iscoves Modified Dulbecco's Medium (with L-glutamine) supplemented with human recombinant epidermal growth factor (10 ng/mL), 1× insulin/transferrin/selenium, and 10% (v/v) heat-inactivated FBS, all from Invitrogen. Cells were maintained at 5% CO2 in air at 37° C. For experiments, cells (250,000 per well) were grown for 24 hr on 6-well plates, and then treated with solvent control (0.1% DMSO, v/v) or compounds for either 5 hr or 24 hr. For western blot analysis, cells were washed twice with ice-cold phosphate buffered saline (PBS) and lysed in 150 μl of RIPA buffer (50 mM Tris-Cl pH 7.5, 150 mM NaCl, 0.5% sodium deoxycholate, 1% NP-40, 0.1% SDS and 1 mM EDTA), containing 1 protease inhibitor cocktail tablet (Roche) per 10 ml of buffer. Cell debris were removed by centrifugation at 16,300×g for […] at 4° C., and protein concentrations were determined by the BCA assay (Thermo). Proteins were resolved by SDS/PAGE, transferred to immobilon-P membranes, and probed with specific antibodies against NQO1 (1:1000) or NRF2 (1:1000). Equal loading was confirmed by probing the blots with an antibody against β-actin (mouse monoclonal, 1:10000), from Sigma, Dorset, United Kingdom.
For nuclear-cytoplasmic separation, WT MEFs (500,000 per dish) were grown for 24 hr on 6-cm plates, and then treated with solvent control (0.1% DMSO, v/v) or 0.5 μM MIND4-17. At the end of each treatment time, cells were placed on ice and washed twice with ice-cold PBS and subsequently lysed in buffer A [10 mM KCl, 5 mM MgCl2, 50 mM Tris-HCl (pH 7.5), 0.5% Nonidet P-40 (Roche), 1 mM dithioretitol (DTT) (Sigma), containing one protease inhibitor tablet and one phosphatase inhibitor tablet (both from Roche) per each 10 ml of buffer]. The lysates were subjected to centrifugation (Spectrafuge 24D, Labnet) at 1,000×g for 5 min at 4° C. The supernatant (cytoplasmic fraction) was transferred to a fresh Eppendorf tube. The pellet (nuclear fraction) was washed three times in buffer A before being dissolved in buffer B [2% SDS, 150 mM NaCl, 65 mM Tris-HCl (pH 8.0)] and sonicated for 30 sec. Finally, the lysates were subjected to western blot analysis. The blots were probed with antibodies against GAPDH (rabbit polyclonal, 1:5000) and Lamin A/C (rabbit polyclonal, 1:1000, Gene Tex, Calif., United States of America) to confirm fraction purity and equal protein loading.
(In general: A western blot detects proteins with antibodies after separation by electrophoresis.)

“Also recorded” adds a separate entry of the source.

Chain of human recombinant SIRT2 deacetylase (Q8IXJ6 whole entry): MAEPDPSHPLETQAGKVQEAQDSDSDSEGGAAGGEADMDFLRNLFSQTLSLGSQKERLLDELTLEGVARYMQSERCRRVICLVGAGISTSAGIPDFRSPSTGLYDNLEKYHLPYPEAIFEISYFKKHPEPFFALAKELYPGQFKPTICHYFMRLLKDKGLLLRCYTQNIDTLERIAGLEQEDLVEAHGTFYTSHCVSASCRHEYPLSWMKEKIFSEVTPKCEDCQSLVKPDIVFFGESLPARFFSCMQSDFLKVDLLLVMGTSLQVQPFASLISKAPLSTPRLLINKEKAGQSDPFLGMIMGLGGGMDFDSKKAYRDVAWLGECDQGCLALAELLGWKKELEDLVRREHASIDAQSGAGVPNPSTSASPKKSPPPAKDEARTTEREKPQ

Consider `O=[N+]([O-])c1ccc(Sc2nnc(COc3ccccc3)n2-c2ccccc2)c2ncccc12` [MIND4, 5-nitro-8-{[5-(phenoxymethyl)-4-phenyl-4H-1,2,4-triazol-3-yl]thio}quinoline], for which the IC50 in experiment [1] (Table 1) stood at 1.7 µM; in experiment [1] (Table 3) it was 3.5 µM. Further, the SIRT2 inhibition result in experiment [1] was “dose-dependent and selective inhibition of human recombinant SIRT2 deacetylase”. In addition, in experiment [2], the “Mutant HTT exon 1 fragments in cortex” value is “Significant reduction of mutant HTT exon I fragments”. Also, the “Accumulation of total NRF2 protein” value in the experiment on NRF2/KEAP1 in MEFs is on record as “to much lesser extent”.

Regarding `O=[N+]([O-])c1ccc(Sc2nnc(COc3ccccc3)n2-c2ccccc2)nc1` [MIND4-17], the IC50 in experiment [1] (Table 3) is above 50 µM. In experiment [1], the SIRT2 inhibition result was “no inhibitory activity; also recorded: no detectable SIRT2 inhibition activity”. In addition, the “NRF2 levels in nuclear and cytoplasmic fractions” value in the experiment with NRF2/KEAP1 in MEFs (0.5 μM, from 30 min, elevated for at least 5 hr) is on record as “increase of NRF2 levels was detected”. Also, the “Accumulation of total NRF2 protein” value in the experiment on NRF2/KEAP1 in MEFs is “readily detectable”.

As usually defined, the IC50 is the concentration that inhibits the measured activity by half.
